# In article PMC9569790, “From Solution Studies of Pharmaceuticals (Aspirin and Related Compounds) to the Thermodynamics of Aspirin-β-Cyclodextrin Interaction in water and N,N-Dimethylformamide” (International Journal of Molecular Sciences, 2022):
# Read-outs that look alike come from different tables or passages of the source. Marks after values point to notes of the source that are not given here.
# How the values were obtained:
# [1] = Solubility measurements (gravimetric analysis of saturated solutions) in water; format: physicochemical
# Description: (§1) The mixtures were left in a thermostatic bath at 298.15 K until equilibrium was reached. Aliquots of the saturated solutions were removed and analyzed gravimetrically by taking a known volume of sample, evaporating the solvent and then weighing the solid in a dry atmosphere. The weighing process was repeated until a constant weight was obtained. The analytical determination was carried out in triplicate on the same equilibrium mixture. Solvate formation was tested by storing the compounds over water or DMF in a desiccator containing an atmosphere saturated with the appropriate solvent over a period of at least four days.
# [2] = water, cited from earlier work
# [3] = Solvate formation test in a solvent-saturated atmosphere; format: physicochemical; settings: water
# Description: as §1
# [4] = parameters: method as in PMID 16509753; settings: water, 298 K, cited from earlier work
# [5] = Calorimetric enthalpies of solution in DMF; format: physicochemical; settings: 298.15 K
# Source text: All observed heats were corrected for the heat from breaking the empty ampoules in DMF (Q = −0.0518 J). Since there were no systematic changes in the ΔsH values with changes in the concentration of the solute, the reported standard ΔsH^0 values are the average values of the data reported in Table 5. This table also includes the standard deviations of the data.
# (§2) The reliability of the calorimeter was checked by carrying out the standard reaction based on the protonation of an aqueous solution of tris-(hydroxymethyl)aminomethane (THAM) with an aqueous solution of hydrochloric acid (0.1 mol dm^−3) at 298.15 K (Equation (11)). H2NC(CH2OH)3(aq) + H3O+ (aq) → H3N+C(CH2OH)3(aq) + H2O(aq)(11)
# (§3) The system was then placed in a water bath until thermal equilibrium was attained, after which the ampoule was broken into the solvent and the process was monitored by the chart recorder. The observed heat was corrected for the heat of the breaking of the empty ampoule in the solvent. The standard enthalpy of the solution, ∆sH^0, was found from […].
# [6] = Transfer thermodynamic parameters from water to DMF; format: physicochemical; settings: 298.15 K
# Source text: As mentioned earlier, ΔsH^0 is made by the contribution of the crystal lattice enthalpy and the solvation enthalpy. In order to remove the contribution of the crystal lattice process, it is a common practice to calculate the transfer thermodynamic parameters according to the following process: […]
# [7] = Conductance measurements in water; format: physicochemical; settings: water
# [8] = Calorimetric enthalpies of solution in water; format: physicochemical; settings: 298.15 K; for ΔsH^0, standard enthalpy of solution: average of the ΔsH values
# Source text: No measurements could be carried out at higher concentrations since the dissolution rate of this compound in water was relatively slow. […] Since there were no systematic changes in the ΔsH values with changes in the concentration of solute, the standard ΔsH^0 value reported in Table 3 is the average value. In the dissolution of a solute in water or any other solvent, there are two processes involved, as described in Equation (5):ΔsH^0 = ΔclH^0 + ΔsolvH^0(5)
# as §2, §3
# [9] = Gibbs free energy and entropies of solution in water, corrected for ion-pair formation; format: physicochemical; settings: 298.15 K
# Source text: In Equation (2), concentrations are in mol dm^−3, and γ ± i^2 is the mean molar ionic coefficient calculated by the use of the Debye–Hückel equation, where γHA is the activity coefficient of the un-ionized species. In very dilute solutions, γHA may be considered equal to unity. As far as the standard Gibbs energy of the solution in the standard state of 1 mol dm^−3, ∆sG^0, is concerned, the application of Equation (3) requires knowledge of the ion-pair formation constant in solution. The availability of Kip and solubilities in water allows the calculation the ionic molar concentration, ci, and the molar concentration of ion pairs, cip, as previously shown. The data refer to the standard state (1 mol dm^−3). ΔsG^0= −RTln (ci^2 * γ±i^2)(3)
# In Equation (6), aH^+ and aA^− represent the activities of the species H^+ and A^− in solution respectively. The activity of the solid is unity by convention. The activity, a, on the molar scale (mol dm^−3) is related to the ionic molar concentration, ci, by the mean molar ionic activity coefficient, γ ± i.
# Thus:K^0sp = ci^2 ∗ γ ± i^2 (7)
# The availability of Gibbs energy (Equation (3)) and enthalpy values allows the calculation of the entropy of solution, ΔsS. For this purpose, the following equation was used.
# [10] = Interaction of acetylsalicylic acid with β-cyclodextrin in DMF (titration calorimetry); format: binding; settings: nonionized guest, 298 K
# [11] = water; cited from earlier work
# [12] = Conductance measurements in DMF; format: physicochemical; settings: 298.15 K
smiles,measurement,setting,value
"CC(=O)Oc1ccccc1C(=O)O [acetylsalicylic acid, reference compound]","Solubility, S",[1],(2.20 ± 0.28) ∗ 10^−2 mol dm^−3
same,"Solubility (literature, molar scale)",[2]; 299.65 K,2.31 × 10^−2 mol dm^−3
same,Solubility (literature),[2],1.78 × 10^−2 mol/dm^−3
same,Solvate formation,[3],not detected
same,log Kass,"[4]; pH 1.75, nonionized guest, calculated from Kass of ref 15",2.74 ^a
same,log Ks,"[4]; pH 6.00, ionized guest, calculated from Ks of ref 15",1.71 ^a
same,"ΔsH^0, standard enthalpy of solution",[5]; average of the ΔsH values,7.8 ± 0.2 kJ/mol
same,"ΔsH, enthalpy of solution",[5]; c = 1.10 × 10^−3 mol dm^−3,7.50 kJ/mol
same,"ΔsH, enthalpy of solution",[5]; c = 1.48 × 10^−3 mol dm^−3,7.54 kJ/mol
same,"ΔsH, enthalpy of solution",[5]; c = 5.74 × 10^−4 mol dm^−3,8.18 kJ/mol
same,"ΔsH, enthalpy of solution",[5]; c = 6.42 × 10^−4 mol dm^−3,7.83 kJ/mol
same,"ΔsH, enthalpy of solution",[5]; c = 8.62 × 10^−4 mol dm^−3,7.69 kJ/mol
same,"ΔsH, enthalpy of solution",[5]; c = 9.10 × 10^−4 mol dm^−3,7.82 kJ/mol
same,"ΔtH^0, enthalpy of transfer",[6],-3.3 kJ/mol
same,"Ka, dissociation constant",[7]; 298.15 K,1.75 × 10^−4
same,"Kip, ion-pair formation constant",[7]; 298.15 K,57 × 10^2
same,"Λ^0m, molar conductance at infinite dilution",[7]; 298.15 K,392 S cm^2 mol^−1
same,Fraction hydrolyzed at the end of the conductance measurements,[7]; estimated from data of Pierre and Jencks [25],5%
same,"ΔsH^0, standard enthalpy of solution",[8]; listed as Acetylsalicylic Acid,ΔsH^0 = 11.1 ± 0.6 kJ mol^−1
same,"ΔsH^0, standard enthalpy of solution",[8]; listed as Acetylsalicylic acid,11.1 kJ/mol
same,"ΔsH, enthalpy of solution",[8]; c = 2.40 × 10^−4 mol dm^−3,11.81 kJ/mol
same,"ΔsH, enthalpy of solution",[8]; c = 3.51 × 10^−4 mol dm^−3,10.46 kJ/mol
same,"ΔsH, enthalpy of solution",[8]; c = 4.66 × 10^−4 mol dm^−3,10.2 kJ/mol
same,"ΔsH, enthalpy of solution",[8]; c = 5.13 × 10^−4 mol dm^−3,11.07 kJ/mol
same,"ΔsH, enthalpy of solution",[8]; c = 5.26 × 10^−4 mol dm^−3,11.24 kJ/mol
same,"ΔsH, enthalpy of solution",[8]; c = 5.99 × 10^−4 mol dm^−3,11.71 kJ/mol
same,"ΔsS^0, entropy of solution",[9],−67 J K^−1 mol^−1
same,pKsp,[9]; corrected for ion-pair formation,5.45
same,"ΔsG^0, standard Gibbs energy of solution",[9]; standard state 1 mol dm^−3,31.1 kJ/mol
same,log Kass,[10],4.66 ± 0.03 ^b
same,"Apparent enthalpy of solution (literature, van ’t Hoff equation)",[11],22.9 kJ/mol
same,Speciation in solution from conductance,[12],undissociated
